Experimental data taken from US20230190754A1, “Therapeutic combinations for the treatment of Progressive Fibrosing interstitial lung diseases” (Boehringer Ingelheim International GmbH, priority 2021, published 2023).

System: IPF patients
Test: Phase II clinical trial in IPF patients: Treatment Emergent Adverse Events (safety/tolerability), up to 13 weeks
Protocol: The participants were divided into 2 groups by chance (the “active agent group” and the “placebo group”). […] One 12 mg placebo tablet and one 6 mg placebo tablet (both containing no active ingredient, see Table 1) was administered orally to the patients of the second group twice daily (b.i.d.).
The “active agent group” and the “placebo group” were further distributed to two different groups regarding background medication: the “AF-group” (“antifibrotic background medication group”) and the “Non-AF-group” (“no antifibrotic background medication group”). […] The combination of both nintedanib and pirfenidone as background medication was not allowed in the “AF-group”.
The trial was a randomised, double-blind, placebo-controlled parallel group study.

[O-][S@+]1CCc2nc(N3CCC(c4ncc(Cl)cn4)CC3)nc(NC3(CO)CCC3)c21 [Comp. of form. III]
AE: Metabolism and nutrition disorders, patients n (Non-AF+AF total, 18 mg b.i.d.): 4
AE: Musculoskeletal and connective tissue disorders, patients % (Non-AF+AF total, 18 mg b.i.d.): (5.2) %
AE: Musculoskeletal and connective tissue disorders, patients n (Non-AF+AF total, 18 mg b.i.d.): 5
AE: Nasopharyngitis, patients % (Non-AF+AF total, 18 mg b.i.d.): (4.1) %
AE: Nasopharyngitis, patients n (Non-AF+AF total, 18 mg b.i.d.): 4
AE: Nausea, patients % (Non-AF+AF total, 18 mg b.i.d.): (3.1) %
AE: Nausea, patients n (Non-AF+AF total, 18 mg b.i.d.): 3
AE: Nervous system disorders, patients % (Non-AF+AF total, 18 mg b.i.d.): (13.4) %
AE: Nervous system disorders, patients n (Non-AF+AF total, 18 mg b.i.d.): 13
AE: Oedema peripheral, patients % (Non-AF+AF total, 18 mg b.i.d.): (2.1) %
AE: Oedema peripheral, patients n (Non-AF+AF total, 18 mg b.i.d.): 2
AE: Pyrexia, patients % (Non-AF+AF total, 18 mg b.i.d.): (2.1) %
AE: Pyrexia, patients n (Non-AF+AF total, 18 mg b.i.d.): 2
AE: Respiratory, thoracic and mediastinal disorders, patients % (Non-AF+AF total, 18 mg b.i.d.): (14.4) %
AE: Respiratory, thoracic and mediastinal disorders, patients n (Non-AF+AF total, 18 mg b.i.d.): 14
AE: Rhinorrhoea, patients % (Non-AF+AF total, 18 mg b.i.d.): (2.1) %
AE: Rhinorrhoea, patients n (Non-AF+AF total, 18 mg b.i.d.): 2
AE: Vomiting, patients % (Non-AF+AF total, 18 mg b.i.d.): (3.1) %
AE: Vomiting, patients n (Non-AF+AF total, 18 mg b.i.d.): 3
AE: Weight decreased, patients % (Non-AF+AF total, 18 mg b.i.d.): (3.1) %
AE: Weight decreased, patients n (Non-AF+AF total, 18 mg b.i.d.): 3
AEs leading to discontinuation of trial drug, patients % (Non-AF+AF total, 18 mg b.i.d.): (13.4) %
AEs leading to discontinuation of trial drug, patients n (Non-AF+AF total, 18 mg b.i.d.): 13
Any AE, patients n (Non-AF+AF total, 18 mg b.i.d.): 67
Diarrhoea leading to discontinuation of trial treatment, patients % (Non-AF+AF total, 18 mg b.i.d.): (3.1) %
Diarrhoea leading to discontinuation of trial treatment, patients n (Non-AF+AF total, 18 mg b.i.d.): 3
Dyspepsia leading to discontinuation of trial treatment, patients % (Non-AF+AF total, 18 mg b.i.d.): (1.0) %
Dyspepsia leading to discontinuation of trial treatment, patients n (Non-AF+AF total, 18 mg b.i.d.): 1
Gastrointestinal disorders leading to discontinuation of trial treatment, patients % (Non-AF+AF total, 18 mg b.i.d.): (5.2) %
Gastrointestinal disorders leading to discontinuation of trial treatment, patients n (Non-AF+AF total, 18 mg b.i.d.): 5
SAE: COPD, patients % (Non-AF+AF total, 18 mg b.i.d.): (1.0) %
SAE: COPD, patients n (Non-AF+AF total, 18 mg b.i.d.): 1
SAE: Cardiac disorders, patients % (Non-AF+AF total, 18 mg b.i.d.): (1.0) %
SAE: Cardiac disorders, patients n (Non-AF+AF total, 18 mg b.i.d.): 1
SAE: Cardiac failure congestive, patients % (Non-AF+AF total, 18 mg b.i.d.): (1.0) %
SAE: Cardiac failure congestive, patients n (Non-AF+AF total, 18 mg b.i.d.): 1
SAE: Condition aggravated, patients % (Non-AF+AF total, 18 mg b.i.d.): (2.1) %
SAE: Condition aggravated, patients n (Non-AF+AF total, 18 mg b.i.d.): 2
SAE: Covid-19 pneumonia, patients % (Non-AF+AF total, 18 mg b.i.d.): (1.0) %
SAE: Covid-19 pneumonia, patients n (Non-AF+AF total, 18 mg b.i.d.): 1
SAE: Dyspnoea, patients % (Non-AF+AF total, 18 mg b.i.d.): (1.0) %
SAE: Dyspnoea, patients n (Non-AF+AF total, 18 mg b.i.d.): 1
SAE: General disorders and administration side conditions, patients % (Non-AF+AF total, 18 mg b.i.d.): (2.1) %
SAE: General disorders and administration side conditions, patients n (Non-AF+AF total, 18 mg b.i.d.): 2
SAE: Infections and Infestations, patients % (Non-AF+AF total, 18 mg b.i.d.): (1.0) %
SAE: Infections and Infestations, patients n (Non-AF+AF total, 18 mg b.i.d.): 1
SAE: Lung neoplasm, patients % (Non-AF+AF total, 18 mg b.i.d.): (1.0) %
SAE: Lung neoplasm, patients n (Non-AF+AF total, 18 mg b.i.d.): 1
SAE: Neoplasms benign, malignant and unspecified, patients % (Non-AF+AF total, 18 mg b.i.d.): (1.0) %
SAE: Neoplasms benign, malignant and unspecified, patients n (Non-AF+AF total, 18 mg b.i.d.): 1
SAE: Nervous system disorders, patients % (Non-AF+AF total, 18 mg b.i.d.): (1.0) %
SAE: Nervous system disorders, patients n (Non-AF+AF total, 18 mg b.i.d.): 1
SAE: Peripheral nerve paresis, patients % (Non-AF+AF total, 18 mg b.i.d.): (1.0) %
SAE: Peripheral nerve paresis, patients n (Non-AF+AF total, 18 mg b.i.d.): 1
SAE: Respiratory, thoracic and mediastinal disorders, patients % (Non-AF+AF total, 18 mg b.i.d.): (1.0) %
SAE: Respiratory, thoracic and mediastinal disorders, patients n (Non-AF+AF total, 18 mg b.i.d.): 1
SAE: Vascular disorders, patients % (Non-AF+AF total, 18 mg b.i.d.): (1.0) %
SAE: Vascular disorders, patients n (Non-AF+AF total, 18 mg b.i.d.): 1
SAE: Vasculitis, patients % (Non-AF+AF total, 18 mg b.i.d.): (1.0) %
SAE: Vasculitis, patients n (Non-AF+AF total, 18 mg b.i.d.): 1
Serious AEs (patients with ≥1 SAE), patients % (Non-AF+AF total, 18 mg b.i.d.): (6.2) %
Serious AEs (patients with ≥1 SAE), patients n (Non-AF+AF total, 18 mg b.i.d.): 6
Severe AEs, patients % (Non-AF+AF total, 18 mg b.i.d.): (4.1) %
Severe AEs, patients n (Non-AF+AF total, 18 mg b.i.d.): 4
Vomiting leading to discontinuation of trial treatment, patients % (Non-AF+AF total, 18 mg b.i.d.): (1.0) %
Vomiting leading to discontinuation of trial treatment, patients n (Non-AF+AF total, 18 mg b.i.d.): 1
Any AE, patients % (Non-AF+AF total, 18 mg b.i.d., listed as Compound of formula III): (69.1) %
Any AE, patients % (Non-AF+AF total, 18 mg b.i.d., listed as active agent): 67%
Abdominal Pain, % (Non-AF, N = 48): (2.1) %
Asthenia, % (Non-AF, N = 48): (6.3) %
Bronchitis, % (Non-AF, N = 48): (2.1) %
Constipation, % (Non-AF, N = 48): (2.1) %
Cough, % (Non-AF, N = 48): (6.3) %
Decreased appetite, % (Non-AF, N = 48): (2.1) %
Diarrhoea, % (Non-AF, N = 48): (16.7) %
Dizziness, % (Non-AF, N = 48): (2.1) %
Dyspepsia, % (Non-AF, N = 48): (6.3) %
Dyspnoea, % (Non-AF, N = 48): (6.3) %
Fatigue, % (Non-AF, N = 48): (4.2) %
Flatulence, % (Non-AF, N = 48): (6.3) %
Gastrointestinal disorders, % (Non-AF, N = 48): (27.1) %
General Disorders and Administration Side conditions, % (Non-AF, N = 48): (18.8) %
Headache, % (Non-AF, N = 48): (6.3) %
Infections and infestations, % (Non-AF, N = 48): (14.6) %
Investigations, % (Non-AF, N = 48): (10.4) %
Metabolism and nutrition disorders, % (Non-AF, N = 48): (2.1) %
Musculoskeletal and connective tissue disorders, % (Non-AF, N = 48): (4.2) %
Nausea, % (Non-AF, N = 48): (4.2) %
Nervous system disorders, % (Non-AF, N = 48): (8.3) %
Oedema peripheral, % (Non-AF, N = 48): (2.1) %
Pyrexia, % (Non-AF, N = 48): (2.1) %
Respiratory, thoracic and mediastinal disorders, % (Non-AF, N = 48): (16.7) %
Rhinorrhoea, % (Non-AF, N = 48): (2.1) %
Vomiting, % (Non-AF, N = 48): (2.1) %
Weight decreased, % (Non-AF, N = 48): (4.2) %
AE resulting in death, patients % (Non-AF-group, 18 mg b.i.d.): (2.1) %
AE resulting in death, patients n (Non-AF-group, 18 mg b.i.d.): 1
AE: Abdominal pain, patients % (Non-AF-group, 18 mg b.i.d.): (2.1) %
AE: Abdominal pain, patients n (Non-AF-group, 18 mg b.i.d.): 1
AE: Asthenia, patients % (Non-AF-group, 18 mg b.i.d.): (6.3) %
AE: Asthenia, patients n (Non-AF-group, 18 mg b.i.d.): 3
AE: Bronchitis, patients % (Non-AF-group, 18 mg b.i.d.): (2.1) %
AE: Bronchitis, patients n (Non-AF-group, 18 mg b.i.d.): 1
AE: Constipation, patients % (Non-AF-group, 18 mg b.i.d.): (2.1) %
AE: Constipation, patients n (Non-AF-group, 18 mg b.i.d.): 1
AE: Cough, patients % (Non-AF-group, 18 mg b.i.d.): (6.3) %
AE: Cough, patients n (Non-AF-group, 18 mg b.i.d.): 3
